Values joined by “and” are separate entries in the source; they are usually repeats but may differ in a detail not shown here. Equal values may be shown once.
Experiments:
Format in all cases: cell-based
E. faecalis A6221420 = assay: Combination Time-kill kinetics; settings: alone or with Meropenem 4 × MIC (16 ug/ml)
Protocol: (§1) As used herein, “synergy” refers to the in vitro effect of administration of a combination of an antibacterial agent such as a Fab I inhibiter, and antiinfective agent such that (1) the fractional inhibitory concentration (FIC) is less than or equal to 0.5 in an FIC assay described herein; or (2) there is at least a 100-fold (2 log10) increase in killing at 24 hours for the combination as compared with the bioactive agent alone in a time kill curve assay as described herein. An FIC of ≦0.5 is evidence of synergy. An additive response has an FIC value of >0.5 and less than or equal to 1, while an indifferent response has an FIC value of >1 and ≦2. An additive effect may still indicate that the combination of bioactive agent and cationic peptide are therapeutically useful.

S. pneumoniae 22257 = assay: Combination Time-kill kinetics; settings: alone or with Azithromycin 4 × MIC (0.12 ug/ml) or Cefuroxime 4 × MIC (8 ug/ml)
Protocol: as §1

S. pneumoniae 22425 = assay: Combination Time-kill kinetics; settings: alone or with Gatifloxacin 4 × MIC (2 ug/ml)
Protocol: as §1

[1] = test system: major pathogenic species tested; assay: Checkerboard combination studies of compound G and commercial antibiotics (FIG. 7); settings: all major pathogenic species tested
Protocol: Checkerboard experiments were performed and analyzed according to standard procedures as outlined below.

[2] = test system: S. pneumoniae 22425, a penicillin and macrolide resistant clinical isolate; assay: Combination time-kill studies; settings: compound alone at both 0.03 μg/ml and 1 μg/ml; S. pneumoniae 22425; FIG. 8
Protocol: Combination time-kill studies were performed as follows. Bacterial inocula were prepared as for MIC determination according to CLSI guidelines. Log phase cells (˜10^6 CFU/ml) were inoculated into 24 well plates and incubated with the indicated concentrations of compound G and commercial antibiotics for 24 hours at 35° C. At indicated time points samples were removed for determination of viable CFU counts. Results are plotted as log CFU/ml vs. time.

Cc1c(CN(C)C(=O)/C=C/c2cnc3c(c2)CCC(=O)N3)oc2ccccc12 [Compound G, (E)-N-methyl-N-(3-methylbenzofuran-2-ylmethyl)-3-(7-oxo-5,6,7,8-tetrahydro-1,8-naphthyridin-3-yl)acrylamide]
logCFU/ml at Time (hr): 0 (E. faecalis A6221420; Compound G 0.03 ug/ml): 5.10 logCFU/ml
logCFU/ml at Time (hr): 2 (E. faecalis A6221420; Compound G 0.03 ug/ml): 6.03 logCFU/ml
logCFU/ml at Time (hr): 4 (E. faecalis A6221420; Compound G 0.03 ug/ml): 6.42 logCFU/ml
logCFU/ml at Time (hr): 8 (E. faecalis A6221420; Compound G 0.03 ug/ml): 9.88 logCFU/ml
logCFU/ml at Time (hr): 24 (E. faecalis A6221420; Compound G 0.03 ug/ml): 9.91 logCFU/ml
ΔlogCFU/ml (24-0 hr) (E. faecalis A6221420; Compound G 0.03 ug/ml): 4.81 logCFU/ml
logCFU/ml at Time (hr): 0 (E. faecalis A6221420; Compound G 1 ug/ml): 5.12 logCFU/ml
logCFU/ml at Time (hr): 2 (E. faecalis A6221420; Compound G 1 ug/ml): 5.93 logCFU/ml
logCFU/ml at Time (hr): 4 (E. faecalis A6221420; Compound G 1 ug/ml): 6.53 logCFU/ml
logCFU/ml at Time (hr): 8 (E. faecalis A6221420; Compound G 1 ug/ml): 9.76 logCFU/ml
logCFU/ml at Time (hr): 24 (E. faecalis A6221420; Compound G 1 ug/ml): 9.91 logCFU/ml
ΔlogCFU/ml (24-0 hr) (E. faecalis A6221420; Compound G 1 ug/ml): 4.79 logCFU/ml
logCFU/ml at Time (hr): 0 (S. pneumoniae 22257; Compound G 0.03 ug/ml): 6.41 logCFU/ml and 6.20 logCFU/ml
logCFU/ml at Time (hr): 3 (S. pneumoniae 22257; Compound G 0.03 ug/ml): 8.31 logCFU/ml and 8.15 logCFU/ml
logCFU/ml at Time (hr): 6 (S. pneumoniae 22257; Compound G 0.03 ug/ml): 9.23 logCFU/ml and 9.35 logCFU/ml
logCFU/ml at Time (hr): 8 (S. pneumoniae 22257; Compound G 0.03 ug/ml): 9.32 logCFU/ml
logCFU/ml at Time (hr): 24 (S. pneumoniae 22257; Compound G 0.03 ug/ml): 9.68 logCFU/ml and 9.65 logCFU/ml
ΔlogCFU/ml (24-0 hr) (S. pneumoniae 22257; Compound G 0.03 ug/ml): 3.26 logCFU/ml and 3.45 logCFU/ml
logCFU/ml at Time (hr): 0 (S. pneumoniae 22257; Compound G 1 ug/ml): 6.43 logCFU/ml and 6.30 logCFU/ml
logCFU/ml at Time (hr): 3 (S. pneumoniae 22257; Compound G 1 ug/ml): 8.30 logCFU/ml and 8.17 logCFU/ml
logCFU/ml at Time (hr): 6 (S. pneumoniae 22257; Compound G 1 ug/ml): 9.33 logCFU/ml and 9.20 logCFU/ml
logCFU/ml at Time (hr): 8 (S. pneumoniae 22257; Compound G 1 ug/ml): 9.47 logCFU/ml and 9.41 logCFU/ml
logCFU/ml at Time (hr): 24 (S. pneumoniae 22257; Compound G 1 ug/ml): 9.68 logCFU/ml and 9.71 logCFU/ml
ΔlogCFU/ml (24-0 hr) (S. pneumoniae 22257; Compound G 1 ug/ml): 3.25 logCFU/ml and 3.40 logCFU/ml
logCFU/ml at Time (hr): 0 (S. pneumoniae 22425; Compound G 0.03 ug/ml): 5.20 logCFU/ml
logCFU/ml at Time (hr): 2 (S. pneumoniae 22425; Compound G 0.03 ug/ml): 5.63 logCFU/ml
logCFU/ml at Time (hr): 6 (S. pneumoniae 22425; Compound G 0.03 ug/ml): 7.25 logCFU/ml
logCFU/ml at Time (hr): 24 (S. pneumoniae 22425; Compound G 0.03 ug/ml): 7.61 logCFU/ml
ΔlogCFU/ml (24-0 hr) (S. pneumoniae 22425; Compound G 0.03 ug/ml): 2.41 logCFU/ml
logCFU/ml at Time (hr): 0 (S. pneumoniae 22425; Compound G 1 ug/ml): 5.12 logCFU/ml
logCFU/ml at Time (hr): 2 (S. pneumoniae 22425; Compound G 1 ug/ml): 5.61 logCFU/ml
logCFU/ml at Time (hr): 6 (S. pneumoniae 22425; Compound G 1 ug/ml): 7.18 logCFU/ml
logCFU/ml at Time (hr): 24 (S. pneumoniae 22425; Compound G 1 ug/ml): 7.58 logCFU/ml
ΔlogCFU/ml (24-0 hr) (S. pneumoniae 22425; Compound G 1 ug/ml): 2.45 logCFU/ml
antagonism in compound G combinations [1]: did not show antagonism
activity against S. pneumoniae (time-kill) [2]: no activity

From patent US7879872B2, “Compositions comprising multiple bioactive agents, and methods of using the same” (Affinium Pharmaceuticals, Inc., priority 2003, dated 2011)
